Data as given in ChEMBL document CHEMBL1133822, “Studies on 3-deoxy-D-manno-octulosonic acid 8-phosphate synthase using chorismate mutase inhibitors” (Bioorg Med Chem Lett, 2001).

Tests used:
[1] = Binding affinity constant against KDO 8-P synthase
[2] = kinact was determined.
[3] = Inhibitory concentration against KDO 8-P synthase
[4] = Inhibitory concentration against Chorismate mutase; set-up: species or system Bacillus subtilis

Ki [1]	K inact [2]	IC50 [3]	IC50 [4]	Compound
2.3 mM	0.01	0.4 mM		CCCC/N=C(\S)C(O)C(O)C(O)C(O)CO (stereo not given)
		> 1 mM		O=C(O)C1C2C=CC(CCC2)C1C(=O)O (stereo not given)
		> 0.5 mM		O=C(O)C1=C(C(=O)O)C2C=CC1[C@@H]1C(C(=O)O)[C@H]21 (stereo not given in full)
		> 1 mM		O=C(O)C12CCC(C(=O)O)(CC1=O)C(=O)C2
		> 1 mM		CC1(C(=O)[O-])CCC(C(=O)[O-])C1(C)C.[Na+].[Na+] (stereo not given)
		> 1 mM		O=C(O)C1C2C=CC(C3CC23)C1C(=O)O (stereo not given)
		> 1 mM	0.35 mM	O=C(O)CC1(O)CCCCC1
